Source: patent US11952603B2, “Method for reducing or inactivating viral and microbial content in the processes for the manufacture of pancreatin” (SCIENTIFIC PROTEIN LABORATORIES, LLC, priority 2015, dated 2024)
Read-outs that look alike come from different tables or passages of the source.

Experiments:
[1] = system: Gram-positive and Gram negative bacteria, fungi and yeasts; settings: at concentrations of <100 ppm; cited from earlier work
virus = test: Transmission electron microscopy of gland tissue and pancreatin powder for virus; settings: 20,000 ppm PAA for 30 minutes
Method: Electron Microscopic Study: Referring to FIGS. 4A-4D, transmission electron microscopy (TEM) and scanning electron microscopy (SEM) were performed to visualize the presence of bacteria and viruses on surface of pancreas gland tissue and pancreatin powder treated with differing concentration of PAA and were compared to non-treated (control) samples.
Pancreas gland tissues treated with PAA and untreated samples as well as resulting pancreatin powder produced with PAA treatment were analyzed with TEM and SEM. For SEM samples were coated with an ultrathin coating of electrically conducting material, deposited on the sample by low-vacuum sputter coating evaporation. A conductive material in current coating used was gold to observe bacteria and viruses. A ZEISS LEO-1530 DSM scanning electron microscope was used to produce the images of FIGS. 4A and 4B. […] (scale bar is 2 μm). […] Viruses are very small in size (15 to 100 nm) and were not possible to observe in SEM. For TEM the pancreas gland tissue and pancreatin powder sample treated with 20,000 ppm PAA for 30 minutes and control samples were stained with 2% uranyl acetate (aq). A Model H-7600 HITACHI transmission electron microscope, Version 3.01, was used to produces the images of FIGS. 4C and 4D. Three TEM slides of each treatment were observed. Each TEM slide had 400 grids to observe. A minimum of 10-15 grids per slide were observed.

[2] = system: Porcine circovirus type 2 (PCV 2); test: Infectious PCV-2 titer by cell based in vitro assay using PK-13 cells (Large Volume Plating, interference assay); settings: 500 and 2000 ppm, endogenous virus
[3] = system: Murine Minute Virus (MMV); test: Viral clearance of spiked MMV on PAA-treated glands, TCID50 endpoint assay; format: cell-based; settings: 10,000 ppm PAA, 30 min sample vs Recovery Control 0 minute
[4] = system: Encephalomycarditis Virus (EMC); format: cell-based, Encephalomyocarditis virus; settings: 10,000 ppm PAA
viruses = settings: cited from earlier work
vegetative bacteria = settings: within 1 min at 25° C., 1.3 mmol/L of PAA; cited from earlier work
[5] = system: aerobic microorganisms (TAMC); test: Total Aerobic Microbial Count (TAMC) of porcine pancreas glands after PAA treatment
Method: For the preparation of pancreatin, 3 kg thawed whole porcine pancreas glands and 3 kg of porcine pancreas glands cut into approximately 2-inch strips were submerged in two different concentrations of PAA, 500 ppm and 2000 ppm for 10 and 15 minutes at room temperature (18-22° C.). Treated glands were rinsed with process water and placed into a sterile sample bag and stored at −20° C. for freezing not less than 12 hours. A total of 6 samples were tested per run. The preparation was executed 2 times. […] Whole gland (A)—500 ppm; • 2. Whole gland (B)—2000 ppm; • 3. Strip gland (A)—500 ppm; • 4. Strip gland (B)—2000 ppm; • 5. Whole gland (C)—No treatment-Control; • 6. Strip gland (C)—No treatment-Control. For all result see Tables 1 and 2.
The strip glands remained consistent.
For the preparation of pancreatin, 3 kg thawed whole glands and 3 kg of milled gland were submerged in two different concentrations of PAA, 500 ppm and 2000 ppm for 10 and 15 minutes at room temperature (18-22° C.). Treated glands were rinsed with purified water and placed into a sterile sample bag and stored at −20° C. for freezing not less than 12 hours. A total of 6 samples were tested per run. The preparation was executed 2 times. Milled glands were difficult to process due to slurry being formed after PAA treatment. […] Whole gland (A)—500 ppm; • 2. Whole gland (B)—2000 ppm; • 3. Milled gland (A)—500 ppm; • 4. Milled gland (B)—2000 ppm; • 5. Whole gland (C)—No treatment-Control; • 6. Milled gland (C)—No treatment-Control. For all results see table 3 and 4.
The TAMC results for both the whole glands and milled before PAA treatments were similar with 1400 and 1100 CFU/g. After 500 ppm and 2000 ppm PAA treatment, the TAMC results for the treated whole glands were exactly the same, 10 CFU/g. The milled glands were not tested after PAA treatment. See results in table 3.

[6] = Strip Gland, Run # 1, Example 1
[7] = Whole Gland, Run # 1, Example 1
[8] = Whole Gland, Run # 2, Example 1

CC(=O)OO [PAA, Peracetic acid]
time to inactivate [1]: less than 5 minutes
virus in pancreas gland tissue (TEM) (virus): No virus was observed
effect of PAA surface treatment in PCV-2 infectivity test [2]: no discernable effect
MMV reduction factor [3]: 3.0±0.9 Log10
EMC reduction factor ([4]; at 15 minutes): about 1.75 log10
EMC reduction factor ([4]; calculated using the 30 min sample): about 0.8 log10
dosage range for viruses (viruses): 100-40,000 ppm
reduction factor in the number of vegetative bacteria (vegetative bacteria): 10^6
TAMC After Treatment at 500 ppm [5, 6]: 130 CFU/g
TAMC After Treatment at 2000 ppm [5, 6]: 45 CFU/g
TAMC After 500 ppm PAA Treatment ([5]; Whole Gland, Example 2): 10 CFU/g
TAMC After 2000 ppm PAA Treatment ([5]; Whole Gland, Example 2): 10 CFU/g
TAMC After Treatment at 500 ppm [5, 7]: 90 CFU/g
TAMC After Treatment at 2000 ppm [5, 7]: 50 CFU/g
TAMC After Treatment at 500 ppm [5, 8]: 30 CFU/g
TAMC After Treatment at 2000 ppm [5, 8]: 10 CFU/g
